# Results reported in patent publication US5525598A, “Gallium (III) complexes in pharmaceutical compositions” (Collery; Phillippe, priority 1991, dated 1996).
# Like-named read-outs stand apart in the source and are kept apart here.
# Key:
# [1] = test system: experimental animal tumors; conditions: Adamson et al. 1975; cited from earlier work
# refractory lymphomas = conditions: phase II trials, patients with refractory lymphomas; Foster et al. 1986; cited from earlier work
# [2] = test system: reverse transcriptase of Rauscher murine leukemia virus; conditions: in vitro; Waalkes et al. 1974; cited from earlier work
# [3] = test system: human immunodeficiency virus (HIV-1); experiment: Anti-HIV-1 activity, protection of T4 lymphocytes from killing by virus (NCI XTT assay); assay type: cell-based
# Text: (§1) The gallium (III) complexes were screened for anti-HIV-1 activity at the National Cancer Institute, Bethesda, Md., as part of their in vitro Anti-AIDS Drug Discovery Program. The assay is based on the killing (cytopathic effect) of T4 lymphocytes by human immunodeficiency virus (HIV-1) and is designed to evaluate the drug effects at any stage of the virus reproductive cycle. […] All tests are compared with a positive control done at the same time and under identical conditions employing 3'-Azido-3'-deoxythymidine (AZT).
# (§2) The general procedure is reprinted below from NCI infomation sheets:
# (§3) 1. Candidate agent is dissolved in dimethylsulfoxide, then diluted 1:2000 in cell culture medium. […] dilutions (half-log10) are prepared before adding to 96-well microtiter plated.
# (§4) 2. T4 lymphocytes (CEN cell line) are exposed to HIV at a virus-to-cell ratio of approximately 0.05 and are plated along with noninfected control cells into drug-containing wells or wells with medium alone.
# (§5) 3. Cultures are incubated at 37° C. in a 5% carbon dioxide atmosphere for 6 days.
# (§6) 4. The tetrazolium salt, XTT, is added to all wells, and cultures are incubated to allow formazon colour development by viable cells.
# (§7) 5. Individual wells are analysed spectrophotometrically to quantitate formazon production and, in addition, are viewed microscopically for detection of viable cells and confirmation of protective activity.
# (§8) 6. Drug-treated virus-infected cells are compared with drug-treated noninfected cells and with other appropriate controls (untreated infected and untreated noninfected cells, drug-containing wells without cells, etc.) on the same plate.
# (§9) 7. Data reviewed in comparison with other tests done at the same time, and a determination about activity is made.
# T4 lymphocytes [4] = experiment: Drug effect on noninfected T4 lymphocytes (NCI XTT assay), IC50; assay type: cell-based
# Text: as §1, §2, §3, §4, §5, §6, §7, §8, §9
# sarcoma 180 = sarcoma 180 system
# Description: The gallium complexes were administered to animals bearing the P-388 leukaemia or the sarcoma 180 system and the average survival time (T) of the treated animals was compared with the average survival of control animals C. A high value T/C is characteristic of an antitumoral activity. [formula]
# [5] = test system: human immunodeficiency virus (HIV-1); conditions: cited from earlier work; for EC50: read-out: EC50 (anti-HIV activity)
# T4 lymphocytes [6] = conditions: cited from earlier work
# [7] = per os, aqueous formulation, therapeutical dosages; EP-B1-0059148; cited from earlier work
# P-388 leukaemia = experiment: Antitumor activity, P-388 leukaemia, survival T/C; assay type: in vivo; conditions: P 388 system
# [8] = CEM-SS, values from O. S. Weislow et al.
# [9] = CEM, values from R. Vince et al.
compound,measurement,setting,value
O=[N+]([O-])[O-].O=[N+]([O-])[O-].O=[N+]([O-])[O-].[Ga+3] [gallium nitrate],antitumor activity,[1],had shown antitumor activity
same,antitumor activity,refractory lymphomas,exhibits antitumor activity
same,inhibition of reverse transcriptase,[2],inhibits the reverse transcriptase
"Cc1ccn[nH]1.Cc1ccn[nH]1.Cc1ccn[nH]1.Cc1ccn[nH]1.[Cl-].[Cl-].[Cl][Ga-]([Cl])([Cl])[Cl].[Ga+3] [[(3-mpyr)4 GaCl2]GaCl4, trans-Dichlorotetrakis-(5-methylpyrazole)gallium (III) tetrachlorogallate (III)]",EC50,[3]; CEM-6,108 µM
same,TI = IC50 /EC50,[3]; CEM-6,1.52
same,IC50,T4 lymphocytes [4]; CEM-6,164 µM
O=S(=O)([O-])c1ccc([O-])c2ncccc12.O=S(=O)([O-])c1ccc([O-])c2ncccc12.O=S(=O)([O-])c1ccc([O-])c2ncccc12.[Ga+3].[K+].[K+].[K+] [Tris-(5-sulfono-8-hydroxyquinoline)gallium(III)-potassium salt],T/C (survival time of treated versus control animals),sarcoma 180,153%
trans-Dichlorotetrakis-(benzimidazole)gallium(III) chloride [[(bim)4 GaCl2]Cl],EC50,[3]; CEM-6,5.01 µM
same,TI = IC50 /EC50,[3]; CEM-6,76.9
same,IC50,T4 lymphocytes [4]; CEM-6,385 µM
"Cc1cn[nH]c1.Cc1cn[nH]c1.Cc1cn[nH]c1.Cc1cn[nH]c1.[Cl-].[Cl-].[Cl][Ga-]([Cl])([Cl])[Cl].[Ga+3] [[(4-mpyr)4 GaCl2]GaCl4, trans-Dichlorotetrakis-(4-methylpyrazole)gallium(II) tetrachlorogallate(III)]",EC50,[3]; CEM-6,231 µM
same,TI = IC50 /EC50,[3]; CEM-6,1.11
same,EC50,[3]; CEM-IW,50.2 µM
same,TI = IC50 /EC50,[3]; CEM-IW,3.92
same,IC50,T4 lymphocytes [4]; CEM-6,256 µM
same,IC50,T4 lymphocytes [4]; CEM-IW,197 µM
"Cc1cn([C@H]2C[C@H](N=[N+]=[N-])[C@@H](CO)O2)c(=O)[nH]c1=O [AZT, 3'-Azido-3'-deoxythymidine]",TI = IC50 /EC50,[5]; [8],1027
same,EC50,[5]; [8],0.186 µM
same,TI = IC50 /EC50,[5]; [9],3680
same,EC50,[5]; [9],0.187 µM
same,IC50,T4 lymphocytes [6]; [8],191 µM
same,IC50,T4 lymphocytes [6]; [9],689 µM
"[Cl-].[Cl-].[Cl-].[Ga+3] [GaCl3, gallium (III) chloride]",renal toxicity,[7],no renal toxicity
"Dichloro-(2-α-oxybenzylbenzimidzoiato-N,O)gallium(III) [(HBB)GaCl2]",T/C (survival time of treated versus control animals),P-388 leukaemia,130%
same,EC50,[3]; CEM-IW,43 µM
same,TI = IC50 /EC50,[3]; CEM-IW,5.14
same,IC50,T4 lymphocytes [4]; CEM-IW,221 µM
